# Source: patent US11882828B2, “Mosquito vector control compositions, methods and products utilizing same” (priority 2015, dated 2024)
# What was measured:
# Assay in all cases: whole plant or invertebrate
# [1] = test system: Anopheles stephensi (Indian malaria mosquito)
# Experimental: […] Once the deposits were dry, five non-blood fed adult female Anopheles stephensi (between two to five days old) were added to each well, and sustained with a 10% sucrose solution in a cotton wool plug. Assessment of the knockdown after 1 hour, and mortality after 48 hours was carried out.
# (§1) In case of multiple tests, the mean value is reported.
# [2] = test system: Aedes aegypti (Yellow fever mosquito)
# Experimental: […] Once the deposits were dry, five non-blood fed adult female Aedes aegypti (between two to five days old) were added to each well, and sustained with a 10% sucrose solution in a cotton wool plug. Assessment of the knockdown after 1 hour, and mortality after 48 hours was carried out.
# as §1
# [3] = test system: Anopheles stephensi
# Experimental: (§2) The individual wells of six (6) well tissue culture plates were treated with 250 μl of an ethanol solution containing a test compound at a defined concentration. Once the deposits were dry, ten non-blood fed adult female Aedes aegypti or Anopheles stephensi (each between two to five day old) were added to each well, and sustained with a 10% sucrose solution in a cotton wool plug.
# (§3) Assessment of the mortality was carried out at 48 hours.
# (§4) Each treatment was replicated twice, with the mean mortality recorded.
# [4] = test system: Aedes aegypti
# Experimental: as §2, §3, §4
# [5] = Anopheles stephensi, 1 h, read-out: Knockdown
# [6] = Aedes aegypti, 1 h, read-out: Knockdown
Structure (SMILES),"pest or weed control at 20 ppm [2, 6] [%]","mortality at 20 ppm ([2]; Aedes aegypti, 48 h) [%]","pest or weed control at 20 ppm [1, 5] [%]","mortality at 20 ppm ([1]; Anopheles stephensi, 48 h) [%]",also measured
"CC1(C)[C@H](C(=O)O[C@H](C#N)c2cccc(Oc3ccccc3)c2)[C@@H]1/C=C(\Cl)C(F)(F)F (racemic) [Lambda-cyhalothrin, reference compound]",,,,,"pest or weed control at 2 ppm [1, 5]: 83%; mortality at 2 ppm ([1]; Anopheles stephensi, 48 h): 100%; pest or weed control at 2 ppm [2, 6]: 92%; mortality at 2 ppm ([2]; Aedes aegypti, 48 h): 100%; mortality at 0.2 ppm ([3]; Anopheles stephensi, 48 h): 84%; mortality at 0.2 ppm ([4]; Aedes aegypti, 48 h): 99%"
CO/C=C(/C(=O)OC)c1ccccc1Oc1ncc(C(C)(C)C)s1 [AA],0,0,,,
"C=CCOC(=O)c1cccn1/C(=C\OC)C(=O)OC [AB, reference compound]",60,100,100,100,"mortality at 5 ppm ([3]; Anopheles stephensi, 48 h): 80%; mortality at 5 ppm ([4]; Aedes aegypti, 48 h): 75%"
"CO/C=C(/C(=O)OC)c1ccccc1COc1cccc(C(F)(F)F)n1 [AC, Picoxystrobin, reference compound]",0,40,100,100,"mortality at 5 ppm ([3]; Anopheles stephensi, 48 h): 75%; mortality at 5 ppm ([4]; Aedes aegypti, 48 h): 4%"
CCc1nnc(Oc2ccccc2/C(=C\OC)C(=O)OC)s1 [AD],0,0,,,
CCCCO/N=C(C)/C(C)=N/OCc1ccccc1/C(=C\OC)C(=O)OC [B],0,0,,,
"CO/C=C(/C(=O)OC)c1ccccc1COc1cc(C(F)(F)F)nc(OC(C)C)n1 [C, Fluacrypyrim]",0,0,,,
CO/C=C(/C(=O)OC)c1ccccc1CO/N=C(C)/C(C)=N/OC [Compound 1],50,90,40,100,"mortality at 5 ppm ([3]; Anopheles stephensi, 48 h): 100%; mortality at 5 ppm ([4]; Aedes aegypti, 48 h): 74%"
"CO/C=C(/C(=O)OC)c1ccccc1Oc1nnc(C(C)(C)C)o1 [Compound 2, methyl (E)-2-[2-[(5-tert-butyl-1,3,4-oxadiazol-2-yl)oxy]phenyl]-3-methoxy-prop-2-enoate]",0,80,40,100,"mortality at 5 ppm ([3]; Anopheles stephensi, 48 h): 100%; mortality at 5 ppm ([4]; Aedes aegypti, 48 h): 90%"
CO/C=C(/C(=O)OC)c1ccccc1Oc1cncc(OCC(F)(F)F)n1 [Compound 3],0,100,100,100,
CO/C=C(/C(=O)OC)c1ccccc1Oc1cc(C(C)(C)C)ncn1 [Compound 9],0,80,100,100,
"CO/C=C(/C(=O)OC)c1ccccc1Oc1cc(C(F)(F)F)ncn1 [Compound 11, methyl (E)-3-methoxy-2-[2-[6-(trifluoromethyl)pyrimidin-4-yl]oxyphenyl]prop-2-enoate]",100,100,80,100,
CO/C=C(/C(=O)OC)c1ccccc1Oc1nccc(C(C)(C)C)n1 [Compound 14],0,40,0,100,
CO/C=C(/C(=O)OC)c1ccccc1CO/N=C(\C)c1cc(C(F)(F)F)ccn1 [Compound 15],50,100,40,100,"mortality at 5 ppm ([3]; Anopheles stephensi, 48 h): 95%; mortality at 5 ppm ([4]; Aedes aegypti, 48 h): 70%"
CCCc1cccc(OCc2ccccc2/C(=C\OC)C(=O)OC)n1 [Compound 16],0,80,20,100,"mortality at 5 ppm ([3]; Anopheles stephensi, 48 h): 95%; mortality at 5 ppm ([4]; Aedes aegypti, 48 h): 20%"
CO/C=C(/C(=O)OC)c1ccccc1CO/N=C(\C)c1cc(C(F)(F)C(F)(F)F)ncn1 [Compound 18],0,40,100,100,"mortality at 5 ppm ([3]; Anopheles stephensi, 48 h): 100%; mortality at 5 ppm ([4]; Aedes aegypti, 48 h): 70%"
"CO/C=C(/C(=O)OC)c1ccccc1COc1ncccc1C(F)(F)F [Compound 19, Methyl (E)-3-methoxy-2-[2-[[3-(trifluoromethyl)-2-pyridyl]oxymethyl]phenyl]prop-2-enoate]",20,100,40,100,"mortality at 5 ppm ([3]; Anopheles stephensi, 48 h): 100%; mortality at 5 ppm ([4]; Aedes aegypti, 48 h): 75%"
"CO/C=C(/C(=O)OC)c1ccccc1COc1nccnc1C(F)(F)F [Compound 20, Methyl (E)-3-methoxy-2-[2-[[3-(trifluoromethyl)pyrazin-2-yl]oxymethyl]phenyl]prop-2-enoate]",100,100,100,100,"mortality at 5 ppm ([3]; Anopheles stephensi, 48 h): 100%; mortality at 5 ppm ([4]; Aedes aegypti, 48 h): 70%"
CO/C=C(/C(=O)OC)c1ccccc1COc1ncc(C(F)(F)F)cc1C(F)(F)F [Compound 21],50,90,100,100,"mortality at 5 ppm ([3]; Anopheles stephensi, 48 h): 100%; mortality at 5 ppm ([4]; Aedes aegypti, 48 h): 85%"
CO/C=C(/C(=O)OC)c1ccccc1COc1nc(F)c(F)cc1F [Compound 23],100,100,20,100,"mortality at 5 ppm ([3]; Anopheles stephensi, 48 h): 93%; mortality at 5 ppm ([4]; Aedes aegypti, 48 h): 60%"
"Clc1ccc(C(c2ccc(Cl)cc2)C(Cl)(Cl)Cl)cc1 [DDT, reference compound]",,,,,"Knockdown ([1]; 10 ppm, after 1 hour): 70%; mortality ([1]; 10 ppm, after 48 hours): 80%; Knockdown ([2]; 10 ppm, after 1 hour): 35%; mortality ([2]; 10 ppm, after 48 hours): 90%; mortality ([3]; 5 ppm, at 48 hours): 59%; mortality ([4]; 5 ppm, at 48 hours): 85%"
CO/C=C(/C(=O)OC)c1ccccc1Oc1ncc([N+](=O)[O-])s1 [D],0,0,,,

Structure (SMILES),"pest or weed control at 20 ppm [2, 6] [%]","mortality at 20 ppm ([2]; Aedes aegypti, 48 h) [%]","pest or weed control at 20 ppm [1, 5] [%]","mortality at 20 ppm ([1]; Anopheles stephensi, 48 h) [%]",also measured
CO/C=C(/C(=O)OC)c1ccccc1CCc1cc(C(F)(F)F)ccn1 [E],0,0,,,
"CO/C=C(/C(=O)OC)c1ccccc1COc1ncccc1Cl [F, reference compound]",0,60,60,100,"mortality at 5 ppm ([3]; Anopheles stephensi, 48 h): 20%; mortality at 5 ppm ([4]; Aedes aegypti, 48 h): 30%"
CO/C=C(/C(=O)OC)c1ccccc1CO/N=C(\C)c1cc(C(F)(F)F)ncn1 [G],0,0,,,
CO/C=C(/C(=O)OC)c1ccccc1CO/N=C(\C)c1cccc(C(F)(F)F)n1 [H],0,0,,,
CO/C=C(/C(=O)OC)c1ccccc1Oc1cc(Cl)ccn1 [I],0,40,,,
CO/C=C(/C(=O)OC)c1ccccc1Oc1cc(OCC(F)(F)F)ncn1 [J],0,0,,,
CCCc1nnc(Oc2ccccc2/C(=C\OC)C(=O)OC)o1 [K],0,0,,,
CCC(CC)/C(C)=N/OCc1ccccc1/C(=C\OC)C(=O)OC [L],0,0,,,
CO/C=C(/C(=O)OC)c1ccccc1Oc1nc(CC(C)(C)C)ns1 [M],0,0,,,
CO/C=C(/C(=O)OC)c1ccccc1Oc1nccc(OC(C)(C)C)n1 [N],0,0,,,
CO/C=C(/C(=O)OC)c1ccccc1Oc1ncnc(C2CC2)n1 [O],0,0,,,
CO/C=C(/C(=O)OC)c1ccccc1COc1cccc(C(C)(C)C)n1 [P],0,0,,,
CN/C(C)=N/OCc1ccccc1/C(=C\OC)C(=O)OC [Q],0,0,,,
"CO/C=C(/C(=O)OC)c1ccccc1CO/N=C(C)/C=C/c1ccc(Cl)cc1 [R, Enoxastrobin]",0,0,,,
"CO/C=C(/C(=O)OC)c1ccccc1COc1cc(-c2ccc(Cl)cc2)nn1C [S, Pyraoxystrobin]",0,0,,,
"CCCCc1c(C)c2ccc(OCc3ccccc3/C(=C\OC)C(=O)OC)cc2oc1=O [T, Coumoxystrobin]",0,0,,,
"CO/C=C(/C(=O)OC)c1ccccc1COc1cc(C(F)(F)F)nc(Nc2ccc(Cl)cc2Cl)n1 [U, Pyriminostrobin]",0,0,,,
CO/C=C(/C(=O)OC)c1ccccc1COc1nc2cc(C(F)(F)F)ccc2nc1C(F)(F)F [V],0,0,,,
CO/C=C(/C(=O)OC)c1ccccc1COc1nc2ccc(C(F)(F)F)cc2nc1C(F)(F)F [W],0,0,,,
CO/C=C(/C(=O)OC)c1ccccc1COc1nccnc1C#N [X],0,0,,,
CO/C=C(/C(=O)OC)c1ccccc1Oc1nnc(C(C)(C)C)s1 [Y],0,0,,,
CCC(C)c1noc(Oc2ccccc2/C(=C\OC)C(=O)OC)n1 (centres unmarked) [Z],0,0,,,
